Source: ChEMBL document CHEMBL4020814, “Synthesis, Binding Mode, and Antihyperglycemic Activity of Potent and Selective (5-Imidazol-2-yl-4-phenylpyrimidin-2-yl)[2-(2-pyridylamino)ethyl]amine Inhibitors of Glycogen Synthase Kinase 3” (J Med Chem, 2017)

What was measured:
[1] = Inhibition of human GSK3 using biotin-CREB peptide substrate after 1 hr by scintillation counting method
[2] = Inhibition of GSK3 expressed in CHO-IR cells expressing human insulin receptor assessed as glycogen synthase activation after 30 mins by filter paper assay; assay type: cell-based, Cavia porcellus

IC50 [1] [nM]	EC50 [2] [nM]	Structure (SMILES)
15	280	O=[N+]([O-])c1ccc(NCCN(CCN2CCOCC2)c2ncc(-n3ccnc3)c(-c3ccc(Cl)cc3Cl)n2)nc1
6	190	CC(=O)Nc1cnc(NCCNc2ccc([N+](=O)[O-])c(N)n2)nc1-c1ccc(Cl)cc1Cl
15	280	O=[N+]([O-])c1ccc(NCCNc2ncc(-n3cnnn3)c(-c3ccc(Cl)cc3Cl)n2)nc1
38	4200	Cc1ccc(-c2nc(NCCNc3ccc([N+](=O)[O-])cn3)ncc2-n2ccnc2)c(C)c1
24	1240	O=[N+]([O-])c1ccc(NCCNc2ncc(-n3ccnc3)c(-c3ccccc3Cl)n2)nc1
3	440	Cc1nc(-c2cnc(NCCNc3ccc([N+](=O)[O-])c(N)n3)nc2-c2ccc(Cl)cc2Cl)[nH]c1C
108	> 10000	Cc1cc(NCCNc2ncc(-n3ccnc3)c(-c3ccc(Cl)cc3Cl)n2)n2ncnc2n1
40	1700	CCOC(=O)c1c(CC)nc(NCCNc2ccc([N+](=O)[O-])cn2)nc1-c1ccc(C#N)cc1
19	1000	N#Cc1ccc(-c2nc(NCCNc3ccc([N+](=O)[O-])cn3)ncc2-n2cncn2)cc1
16	3000	Nc1nc(NCCNc2ncc(NC(=O)NCCN3CCOCC3)c(-c3ccc(Cl)cc3Cl)n2)ccc1[N+](=O)[O-]
527	12700	Clc1ccc(-c2nc(NCCNc3nc4ccc(Cl)cc4s3)ncc2-n2ccnc2)c(Cl)c1
236	9440	N#Cc1cnc(NCCNc2ncc(-n3ccnc3)c(-c3ccc(Cl)cc3Cl)n2)nc1N
4	40	Nc1nc(NCCNc2ncc(-n3cccc(C(F)(F)F)c3=O)c(-c3ccc(Cl)cc3Cl)n2)ccc1[N+](=O)[O-]
61	8700	CN(C)C(=O)c1cnc(NCCNc2ccc([N+](=O)[O-])cn2)nc1-c1ccc(C#N)cc1
9	100	CCc1ccc(-c2nc(NCCNc3ccc([N+](=O)[O-])cn3)ncc2-n2ccnc2)cc1
18	510	Nc1nc(NCCNc2ncc(N3CCNCC3)c(-c3ccc(Cl)cc3Cl)n2)ccc1[N+](=O)[O-]
24	17700	Nc1nc(NCCNc2ncc(NC(=O)CCCN3CCOCC3)c(-c3ccc(Cl)cc3Cl)n2)ccc1[N+](=O)[O-]
22	80	CN(CCNc1ccc([N+](=O)[O-])cn1)c1ncc(-n2ccnc2)c(-c2ccc(Cl)cc2Cl)n1
27	1500	COc1ccc(-c2nc(NCCNc3ccc([N+](=O)[O-])cn3)ncc2-n2ccnc2)c(OC)c1
1	130	Nc1nc(NCCNc2ncc(-c3nc(-c4ccccc4)c[nH]3)c(-c3ccc(Cl)cc3Cl)n2)ccc1[N+](=O)[O-]
6	1580	Nc1nc(NCCNc2ncc(N3CCCC3=O)c(-c3ccc(Cl)cc3Cl)n2)ccc1[N+](=O)[O-]
197	23900	O=[N+]([O-])c1ccc(NCCNc2ncc(-n3ccnc3)c(-c3ccccc3)n2)nc1
71	> 10000	CN(C)CCNC(=O)c1cnc(NCCNc2ccc([N+](=O)[O-])cn2)nc1-c1ccc(C#N)cc1
140	> 10000	CN(C)CCN(C)C(=O)c1cnc(NCCNc2ccc([N+](=O)[O-])cn2)nc1-c1ccc(C#N)cc1
52	2200	CCOC(=O)c1cnc(NCCNc2ccc([N+](=O)[O-])cn2)nc1-c1ccc(C#N)cc1
201	3900	Clc1ccc(-c2nc(NCCNc3cc(Cl)ncn3)ncc2-n2ccnc2)c(Cl)c1
27	3000	CNC(=O)Nc1cnc(NCCNc2ccc([N+](=O)[O-])c(N)n2)nc1-c1ccc(Cl)cc1Cl
25	670	CN(C)CC(=O)Nc1cnc(NCCNc2ccc([N+](=O)[O-])c(N)n2)nc1-c1ccc(Cl)cc1Cl
